Measured values as given in paper PMC12748989 (Nature Communications, 2025).

Legend:
PBMC = details: 12.5 µM

| SMILES | Average (percentage cell inhibition), Dmastoparan MDA-MB231 12.5uM (MDA-MB-231 cells) | Average (percentage cell inhibition), Mastoparan PBMC (PBMC) |
| --- | --- | --- |
| CC[C@H](C)[C@H](N)C(=O)N[C@@H](CC(N)=O)C(=O)N[C@@H](CC(C)C)C(=O)N[C@@H](CCCCN)C(=O)N[C@@H](C)C(=O)N[C@@H](CC(C)C)C(=O)N[C@@H](C)C(=O)N[C@@H](C)C(=O)N[C@H](C(=O)N[C@@H](C)C(=O)N[C@@H](CCCCN)C(=O)N[C@@H](CCCCN)C(=O)N[C@H](C(=O)N[C@@H](CC(C)C)C(N)=O)[C@@H](C)CC)C(C)C [V9] | 43.1794% | 10.0305% |
| CC[C@H](C)[C@H](N)C(=O)N[C@@H](CC(N)=O)C(=O)N[C@@H](CC(C)C)C(=O)N1CCC[C@H]1C(=O)N[C@@H](C)C(=O)N[C@@H](CC(C)C)C(=O)N[C@@H](C)C(=O)N[C@@H](C)C(=O)N[C@@H](CC(C)C)C(=O)N[C@@H](C)C(=O)N[C@@H](CCCCN)C(=O)N[C@@H](CCCCN)C(=O)N[C@H](C(=O)N[C@@H](CC(C)C)C(N)=O)[C@@H](C)CC [P4] | 10.9719% | -6.014% |
| CC[C@H](C)[C@H](N)C(=O)N[C@@H](CC(N)=O)C(=O)NCC(=O)N[C@@H](CCCCN)C(=O)N[C@@H](C)C(=O)N[C@@H](CC(C)C)C(=O)N[C@@H](C)C(=O)N[C@@H](C)C(=O)N[C@@H](CC(C)C)C(=O)N[C@@H](C)C(=O)N[C@@H](CCCCN)C(=O)N[C@@H](CCCCN)C(=O)N[C@H](C(=O)N[C@@H](CC(C)C)C(N)=O)[C@@H](C)CC [G3] | 40.6724% | 8.745% |
| CC[C@H](C)[C@H](N)C(=O)N[C@@H](CC(N)=O)C(=O)N[C@@H](CC(C)C)C(=O)N[C@@H](CCCCN)C(=O)N[C@@H](C)C(=O)N[C@@H](CC(C)C)C(=O)N[C@@H](C)C(=O)N[C@@H](C)C(=O)N[C@@H](CC(C)C)C(=O)N[C@@H](C)C(=O)N[C@@H](CCCCN)C(=O)N[C@@H](CCCCN)C(=O)N[C@H](C(=O)N[C@@H](CC(C)C)C(N)=O)[C@@H](C)O [T13] | 38.2444% | 3.307% |
| CC[C@H](C)[C@H](N)C(=O)N[C@@H](CC(N)=O)C(=O)N[C@@H](CC(C)C)C(=O)N[C@@H](CCCCN)C(=O)N[C@@H](C)C(=O)N[C@@H](CC(C)C)C(=O)N[C@@H](C)C(=O)N[C@@H](C)C(=O)N[C@@H](CC(C)C)C(=O)N[C@@H](C)C(=O)N[C@@H](CCCCN)C(=O)N[C@@H](C)C(=O)N[C@H](C(=O)N[C@@H](CC(C)C)C(N)=O)[C@@H](C)CC [A12] | 42.9356% | 17.0691% |
| CC[C@H](C)[C@H](N)C(=O)N[C@@H](CC(N)=O)C(=O)N[C@@H](CC(C)C)C(=O)N[C@@H](CCCCN)C(=O)N[C@@H](CCC(=O)O)C(=O)N[C@@H](CC(C)C)C(=O)N[C@@H](C)C(=O)N[C@@H](C)C(=O)N[C@@H](CC(C)C)C(=O)N[C@@H](C)C(=O)N[C@@H](CCCCN)C(=O)N[C@@H](CCCCN)C(=O)N[C@H](C(=O)N[C@@H](CC(C)C)C(N)=O)[C@@H](C)CC [E5] | 15.4865% | 3.135% |
| CC[C@H](C)[C@H](N)C(=O)N[C@@H](CC(N)=O)C(=O)N[C@@H](CC(C)C)C(=O)N[C@@H](CCCCN)C(=O)N[C@@H](C)C(=O)N[C@@H](CC(C)C)C(=O)N[C@@H](C)C(=O)N[C@@H](C)C(=O)N[C@@H](CC(C)C)C(=O)N[C@@H](C)C(=O)N[C@@H](CCCCN)C(=O)N1CCC[C@H]1C(=O)N[C@H](C(=O)N[C@@H](CC(C)C)C(N)=O)[C@@H](C)CC [P12] | -19.0406% | -2.814% |
| CC[C@H](C)[C@H](N)C(=O)N[C@@H](CC(N)=O)C(=O)N[C@@H](CC(C)C)C(=O)N[C@@H](CCCCN)C(=O)N[C@@H](C)C(=O)N[C@@H](CC(C)C)C(=O)N[C@@H](C)C(=O)N[C@@H](Cc1c[nH]cn1)C(=O)N[C@@H](CC(C)C)C(=O)N[C@@H](C)C(=O)N[C@@H](CCCCN)C(=O)N[C@@H](CCCCN)C(=O)N[C@H](C(=O)N[C@@H](CC(C)C)C(N)=O)[C@@H](C)CC [H8] | 53.8201% | -4.293% |
| CC[C@H](C)[C@H](N)C(=O)N[C@@H](CC(N)=O)C(=O)N[C@@H](CC(C)C)C(=O)N[C@@H](CCCCN)C(=O)N[C@@H](C)C(=O)N[C@@H](CC(C)C)C(=O)N[C@@H](C)C(=O)N[C@@H](C)C(=O)N[C@@H](CC(C)C)C(=O)N[C@@H](CC(C)C)C(=O)N[C@@H](CCCCN)C(=O)N[C@@H](CCCCN)C(=O)N[C@H](C(=O)N[C@@H](CC(C)C)C(N)=O)[C@@H](C)CC [L10] | 86.3514% | 52.7294% |
| CC[C@H](C)[C@H](N)C(=O)N[C@@H](CC(C)C)C(=O)N[C@@H](CC(C)C)C(=O)N[C@@H](CCCCN)C(=O)N[C@@H](C)C(=O)N[C@@H](CC(C)C)C(=O)N[C@@H](C)C(=O)N[C@@H](C)C(=O)N[C@@H](CC(C)C)C(=O)N[C@@H](C)C(=O)N[C@@H](CCCCN)C(=O)N[C@@H](CCCCN)C(=O)N[C@H](C(=O)N[C@@H](CC(C)C)C(N)=O)[C@@H](C)CC [L2] | 95.7612% | 76.9101% |
| CC[C@H](C)[C@H](N)C(=O)N[C@@H](CC(N)=O)C(=O)N[C@@H](CC(C)C)C(=O)N[C@@H](C)C(=O)N[C@@H](C)C(=O)N[C@@H](CC(C)C)C(=O)N[C@@H](C)C(=O)N[C@@H](C)C(=O)N[C@@H](CC(C)C)C(=O)N[C@@H](C)C(=O)N[C@@H](CCCCN)C(=O)N[C@@H](CCCCN)C(=O)N[C@H](C(=O)N[C@@H](CC(C)C)C(N)=O)[C@@H](C)CC [A4] | 36.5883% | 11.5193% |
| CC[C@H](C)[C@H](N)C(=O)N[C@@H](CC(N)=O)C(=O)N[C@@H](CC(C)C)C(=O)N[C@@H](CCCCN)C(=O)N[C@@H](C)C(=O)N[C@@H](CC(C)C)C(=O)N[C@@H](C)C(=O)N[C@@H](C)C(=O)N[C@@H](CC(C)C)C(=O)N[C@@H](C)C(=O)N[C@@H](CCCCN)C(=O)N[C@@H](CCCCN)C(=O)N[C@H](C(=O)N[C@H](C(N)=O)[C@@H](C)CC)[C@@H](C)CC [I14] | 33.7751% | 14.5337% |
| CC[C@H](C)[C@H](N)C(=O)N[C@@H](CC(N)=O)C(=O)N[C@@H](CC(C)C)C(=O)N[C@@H](CCCCN)C(=O)N1CCC[C@H]1C(=O)N[C@@H](CC(C)C)C(=O)N[C@@H](C)C(=O)N[C@@H](C)C(=O)N[C@@H](CC(C)C)C(=O)N[C@@H](C)C(=O)N[C@@H](CCCCN)C(=O)N[C@@H](CCCCN)C(=O)N[C@H](C(=O)N[C@@H](CC(C)C)C(N)=O)[C@@H](C)CC [P5] | 25.1894% | 0.2776% |
| CC[C@H](C)[C@H](N)C(=O)N[C@@H](CC(N)=O)C(=O)N[C@@H](CC(C)C)C(=O)N[C@@H](CCCCN)C(=O)N[C@@H](C)C(=O)N[C@@H](CC(C)C)C(=O)N[C@@H](CC(N)=O)C(=O)N[C@@H](C)C(=O)N[C@@H](CC(C)C)C(=O)N[C@@H](C)C(=O)N[C@@H](CCCCN)C(=O)N[C@@H](CCCCN)C(=O)N[C@H](C(=O)N[C@@H](CC(C)C)C(N)=O)[C@@H](C)CC [N7] | 28.8818% | 10.586% |
| CC[C@H](C)[C@H](N)C(=O)N[C@@H](CC(N)=O)C(=O)N[C@@H](CC(C)C)C(=O)N[C@@H](CCCCN)C(=O)N[C@@H](C)C(=O)N[C@@H](CC(C)C)C(=O)N[C@@H](C)C(=O)N[C@@H](C)C(=O)N[C@@H](CC(C)C)C(=O)N[C@@H](C)C(=O)N[C@@H](CCCCN)C(=O)N[C@@H](CCCCN)C(=O)N[C@@H](CCCNC(=N)N)C(=O)N[C@@H](CC(C)C)C(N)=O [R13] | 13.2975% | -5.395% |
| CC[C@H](C)[C@H](N)C(=O)N1CCC[C@H]1C(=O)N[C@@H](CC(C)C)C(=O)N[C@@H](CCCCN)C(=O)N[C@@H](C)C(=O)N[C@@H](CC(C)C)C(=O)N[C@@H](C)C(=O)N[C@@H](C)C(=O)N[C@@H](CC(C)C)C(=O)N[C@@H](C)C(=O)N[C@@H](CCCCN)C(=O)N[C@@H](CCCCN)C(=O)N[C@H](C(=O)N[C@@H](CC(C)C)C(N)=O)[C@@H](C)CC [P2] | 36.9174% | -4.49% |
| CC[C@H](C)[C@H](N)C(=O)N[C@@H](CC(N)=O)C(=O)N[C@@H](CC(C)C)C(=O)N[C@@H](CCCNC(=N)N)C(=O)N[C@@H](C)C(=O)N[C@@H](CC(C)C)C(=O)N[C@@H](C)C(=O)N[C@@H](C)C(=O)N[C@@H](CC(C)C)C(=O)N[C@@H](C)C(=O)N[C@@H](CCCCN)C(=O)N[C@@H](CCCCN)C(=O)N[C@H](C(=O)N[C@@H](CC(C)C)C(N)=O)[C@@H](C)CC [R4] | 36.9563% | 0.667% |
| CC[C@H](C)[C@H](N)C(=O)N[C@@H](CC(N)=O)C(=O)N[C@@H](C)C(=O)N[C@@H](CCCCN)C(=O)N[C@@H](C)C(=O)N[C@@H](CC(C)C)C(=O)N[C@@H](C)C(=O)N[C@@H](C)C(=O)N[C@@H](CC(C)C)C(=O)N[C@@H](C)C(=O)N[C@@H](CCCCN)C(=O)N[C@@H](CCCCN)C(=O)N[C@H](C(=O)N[C@@H](CC(C)C)C(N)=O)[C@@H](C)CC [A3] | 17.9778% | -7.622% |
| CC[C@H](C)[C@H](N)C(=O)N[C@@H](CC(N)=O)C(=O)N[C@@H](CC(C)C)C(=O)N[C@@H](CCCCN)C(=O)N[C@@H](Cc1c[nH]cn1)C(=O)N[C@@H](CC(C)C)C(=O)N[C@@H](C)C(=O)N[C@@H](C)C(=O)N[C@@H](CC(C)C)C(=O)N[C@@H](C)C(=O)N[C@@H](CCCCN)C(=O)N[C@@H](CCCCN)C(=O)N[C@H](C(=O)N[C@@H](CC(C)C)C(N)=O)[C@@H](C)CC [H5] | 26.5106% | 3.516% |
